In article PMC11790914, “Chemogenomics for steroid hormone receptors (NR3)” (Communications Chemistry, 2025):

How the values were obtained:
NR3A2 (ERβ) = settings: (lit.); ref Supplementary Table 1; read-out: Potency [nM] IC50, NR3A2 (ERβ); cited from earlier work
NR1I2 (PXR) = molecular target: T1, NR1I2 (PXR) (Homo sapiens, UniProt O75469); experiment: Gal4 hybrid reporter gene assay PXR; assay type: cell-based; settings: 1 µM, n=3
T1 construct: expressed in transfected cells; host or cells: HEK293T
Method: (§1) Reference ligands are listed in the methods section.
(§2) HEK293T cells (ATCC, Manassas, Virgina, USA; #CRL-3216) were cultured to a maximal confluence of 70–80% in DMEM, high glucose, supplemented with 10% FCS, sodium pyruvate (1 mM), penicillin (100 U/mL), and streptomycin (100 μg/mL) at 37 °C and 5% CO2 (v/v), and seeded in clear 96-well plates (4 × 10^4 cells per well). After 20–24 h, medium was changed to Opti-MEM without supplements and the cells were transiently transfected using Lipofectamine™ LTX/Plus™ Reagents (Invitrogen, Carlsbad, California, USA; #15338100) according to the manufacturer’s protocol with pFR-Luc (reporter gene; Stratagene, Agilent Technologies, Santa Clara, California, USA; #219050), pRL-SV40 (control gene for normalization of transfection efficiency and cell growth; Promega, Fitchburg, Wisconsin, USA; #E2231) and one pFA-CMV-hNR-LBD clone coding for the hinge region and ligand binding domain (LBD) of the human NR of interest. […] Firefly (reporter) and renilla (control) luminescence were measured after 14–16 h incubation using the Dual-Glo® Luciferase Assay System (Promega, Fitchburg, Wisconsin, USA; #E2980) according to manufacturer’s protocol on a Tecan Spark® 10M multimode microplate reader (Tecan Group AG, Männedorf, Switzerland). To obtain relative light units (RLU) firefly luminescence was divided by renilla luminescence and multiplied by 1000. […]

NR4A1 (Nur77) = molecular target: T2, NR4A1 (Nur77) (Homo sapiens, UniProt P22736); experiment: Gal4 hybrid reporter gene assay Nur77; assay type: cell-based; settings: 10 µM, n=3
T2 construct: expressed in transfected cells; host or cells: HEK293T
Method: as §1, §2

NR1F3 (RORγ) = molecular target: T3, NR1F3 (RORγ) (Homo sapiens, UniProt P51449); experiment: Gal4 hybrid reporter gene assay RORγ; assay type: cell-based; settings: 3 µM, n=3
T3 construct: expressed in transfected cells; host or cells: HEK293T
Method: as §1, §2

NR3B3 (ERRγ) = settings: (lit.); ref Supplementary Table 1; read-out: Potency [nM] EC50, NR3B3 (ERRγ); cited from earlier work
NR3C2 (MR) = settings: rem. act.; cited from earlier work
NR5A2 (LRH1) = experiment: Gal4 hybrid reporter gene assay LRH1; assay type: cell-based, human; settings: 1 µM; n=3; vs. DMSO ctrl
Method: as §1, §2

T3 sequence (P51449 269-508 limits assumed): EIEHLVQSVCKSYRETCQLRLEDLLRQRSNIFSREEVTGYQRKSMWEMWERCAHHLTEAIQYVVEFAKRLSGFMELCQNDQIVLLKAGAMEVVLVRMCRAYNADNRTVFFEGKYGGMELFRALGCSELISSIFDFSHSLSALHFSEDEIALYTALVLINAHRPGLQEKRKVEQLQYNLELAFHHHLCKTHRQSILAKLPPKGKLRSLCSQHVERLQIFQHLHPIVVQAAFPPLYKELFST
T1 sequence (O75469 146-433 limits assumed): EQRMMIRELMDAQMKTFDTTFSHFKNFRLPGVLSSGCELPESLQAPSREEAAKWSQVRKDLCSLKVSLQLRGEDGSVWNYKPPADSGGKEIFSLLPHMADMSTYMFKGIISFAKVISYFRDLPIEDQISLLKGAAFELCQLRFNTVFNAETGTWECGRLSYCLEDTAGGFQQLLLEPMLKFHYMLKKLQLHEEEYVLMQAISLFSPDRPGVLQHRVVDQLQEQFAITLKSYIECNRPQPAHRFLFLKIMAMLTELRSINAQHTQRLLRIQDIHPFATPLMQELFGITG
T2 sequence (P22736 360-595 limits assumed): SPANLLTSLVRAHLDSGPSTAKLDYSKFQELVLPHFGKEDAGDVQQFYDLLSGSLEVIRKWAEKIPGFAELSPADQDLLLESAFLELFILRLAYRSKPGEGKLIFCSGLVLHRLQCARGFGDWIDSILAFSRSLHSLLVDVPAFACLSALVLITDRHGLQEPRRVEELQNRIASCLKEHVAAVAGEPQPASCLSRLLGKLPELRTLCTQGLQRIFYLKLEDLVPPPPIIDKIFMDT

## CC/C(=C(\c1ccc(O)cc1)c1ccc(OCCN(C)C)cc1)c1ccccc1 [(Z)-4-Hydroxytamoxifen]
NR3A2 (ERβ)
  IC50: 1 ± 1 nM

## CC/C(=C(/c1ccc(/C=C/C(=O)O)cc1)c1ccc2[nH]ncc2c1)c1ccc(F)cc1Cl [ARN810]
NR3A2 (ERβ)
  IC50: 9 nM
NR1I2 (PXR)
  Activity on NR1I2 (PXR): -0.68 mean log10(fold reporter gene activity)

## COc1ccc(-c2coc3cc(O)cc(O)c3c2=O)cc1 [Biochanin A]
NR4A1 (Nur77)
  Activity on NR4A1 (Nurr77): 0.34 mean log10(fold reporter gene activity)

## CCCC1O[C@@H]2C[C@H]3[C@@H]4CCC5=CC(=O)C=C[C@]5(C)[C@H]4[C@@H](O)C[C@]3(C)[C@]2(C(=O)CO)O1 (stereo partly drawn) [Budesonide]
NR1F3 (RORγ)
  Activity on NR1F3 (RORγ): -0.30 mean log10(fold reporter gene activity)

## CCN(CC)c1ccc(/C=N/NC(=O)c2ccc(O)cc2)cc1 [DY131]
NR3B3 (ERRγ)
  EC50: 130 nM
NR1F3 (RORγ); vs. DMSO ctrl
  Activity on NR targets outside NR3 family [mean log10(fold reporter gene activity)] NR1F3 (RORγ): 0.21 log10(fold reporter gene activity)

## CC#C[C@]1(O)CC[C@H]2[C@@H]3CCC4=CC(=O)CCC4=C3[C@@H](c3ccc(N(C)C)cc3)C[C@@]21C [Mifepristone]
NR3C2 (MR)
  rel. activity from literature, NR3C2 (MR): % rem. act.: 4%

## COc1cc(/C=C(\C#N)C(=O)Nc2nnc(C(F)(F)F)s2)ccc1OCc1ccc(C(F)(F)F)cc1C(F)(F)F [XCT790]
NR5A2 (LRH1)
  Activity on NR targets outside NR3 family [mean log10(fold reporter gene activity)] NR5A2 (LRH1): 0.20 log10(fold reporter gene activity)
